Measurements from patent US7439372B2, “Therapeutic compounds” (Allergan, Inc., priority 2006, dated 2008).

Experiments:
hFP = biological target: T1, hFP (Homo sapiens, UniProt P43088); test: FLIPR calcium signal, HEK-293(EBNA) cells expressing hFP; type: cell-based
T1 construct: expressed in transfected cells; host or cells: HEK-293(EBNA)
Experimental: HEK-293(EBNA) cells, stably expressing one type or subtype of recombinant human prostaglandin receptors (prostaglandin receptors expressed: hDP/Gqs5; hEP1; hEP2/Gqs5; hEP3A/Gqi5; hEP4/Gqs5; hFP; hIP; hTP), were cultured in 100 mm culture dishes in high-glucose DMEM medium containing 10% fetal bovine serum, 2 mM l-glutamine, 250 µg/ml geneticin (G418) and 200 μg/ml hygromycin B as selection markers, and 100 units/ml penicillin G, 100 µg/ml streptomycin and 0.25 μg/ml amphotericin B.
Cells were seeded at a density of 5×10^4 cells per well in Biocoat® Poly-D-lysine-coated black-wall, clear-bottom 96-well plates (Becton-Dickinson) and allowed to attach overnight in an incubator at 37° C. Cells were then washed two times with HBSS-HEPES buffer (Hanks Balanced Salt Solution without bicarbonate and phenol red, 20 mM HEPES, pH 7.4) using a Denley Cellwash plate washer (Labsystems). After 45 minutes of dye-loading in the dark, using the calcium-sensitive dye Fluo-4 […] at a final concentration of 2 μM, plates were washed four times with HBSS-HEPES buffer to remove excess dye leaving 100 μl in each well. Plates were re-equilibrated to 37° C. for a few minutes.
Cells were excited with an Argon laser at 488 nm, and emission was measured through a 510-570 nm bandwidth emission filter (FLIPR™, Molecular Devices, Sunnyvale, Calif.). Drug solution was added in a 50 µl volume to each well to give the desired final concentration. The peak increase in fluorescence intensity was recorded for each well. On each plate, four wells each served as negative (HBSS-HEPES buffer) and positive controls (standard agonists: BW245C (hDP); PGE2 (hEP1; hEP2/Gqs5; hEP3A/Gqi5; hEP4/Gqs5); PGF2α (hFP); carbacyclin (hIP); U-46619 (hTP), depending on receptor). The peak fluorescence change in each drug-containing well was then expressed relative to the controls.
Compounds were tested in a high-throughput (HTS) or concentration-response (CoRe) format. In the HTS format, forty-four compounds per plate were examined in duplicates at a concentration of 10^−5 M. To generate concentration-response curves, four compounds per plate were tested in duplicates in a concentration range between 10^−5 and 10^−11 M. The duplicate values were averaged. In either, HTS or CoRe format each compound was tested on at least 3 separate plates using cells from different passages to give an n≧3.

EP2 = EP2 (Homo sapiens, UniProt P43116); test: Competition binding, [3H]PGE2, HEK 293 cells stably expressing human EP2 receptors; parameters: expressed in transfected cells; host or cells: HEK 293; settings: [3H]PGE2 competition
Chain of EP2 (P43116 whole entry): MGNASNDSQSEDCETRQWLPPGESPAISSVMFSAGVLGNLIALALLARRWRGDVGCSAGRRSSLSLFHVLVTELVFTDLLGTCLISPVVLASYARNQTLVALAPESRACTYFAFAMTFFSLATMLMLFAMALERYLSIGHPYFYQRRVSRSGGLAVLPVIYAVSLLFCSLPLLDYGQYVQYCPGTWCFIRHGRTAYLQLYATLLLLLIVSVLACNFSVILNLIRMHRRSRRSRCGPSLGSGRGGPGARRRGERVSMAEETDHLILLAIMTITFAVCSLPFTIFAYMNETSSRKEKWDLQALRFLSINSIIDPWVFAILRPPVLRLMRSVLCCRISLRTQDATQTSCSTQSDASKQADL
Experimental: Competition binding experiments were performed in a medium containing Hank's balanced salt solution, Hepes 20 mM, pH 7.3, membranes (˜60 μg protein) or 2×10^5 cells from HEK 293 cells stably expressing human EP2 receptors, [^3H]PGE2 (10 nM) and various concentrations of test compounds in a total volume of 300 μl. Reaction mixtures were incubated at 23° C. for 60 min, and were filtered over Whatman GF/B filters under vacuum. Filters were washed three times with 5 ml ice-cold buffer containing 50 mM Tris/HCl (pH 7.3). Non-specific binding was estimated in the presence of excess unlabeled PGE2 (10 μM). Binding data fitted to the binding model for a single class of binding sites, using nonlinear regression analysis. IC50 values thus obtained were converted to Ki using the equation of Ki=(IC50/(1+[L]/KD) where [L] represents PGE2 concentration (10 nM) and KD the dissociation constant for [3H]PGE2 at human EP2 receptors (40 nM).
(§1) HEK-293 cells stably expressing the human or feline FP receptor, or EP1, EP2, or EP4 receptors were washed with TME buffer, scraped from the bottom of the flasks, and homogenized for 30 sec using a Brinkman PT 10/35 polytron. TME buffer was added to achieve a final 40 ml volume in the centrifuge tubes (the composition of TME is 100 mM TRIS base, 20 mM MgCl2, […]; 10N HCl is added to achieve a pH of 7.4).
(§2) The cell homogenate was centrifuged at 19000 r.p.m. for 20 min at 4° C. using a Beckman Ti-60 rotor. The resultant pellet was resuspended in TME buffer to give a final 1 mg/ml protein concentration, as determined by Biorad assay. Radioligand binding competition assays vs. [^3H-]17-phenyl PGF2α (5 nM) were performed in a 100 μl volume for 60 min. Binding reactions were started by adding plasma membrane fraction. The reaction was terminated by the addition of 4 ml ice-cold TRIS-HCl buffer and rapid filtration through glass fiber GF/B filters using a Brandel cell harvester. The filters were washed 3 times with ice-cold buffer and oven dried for one hour.
(§3) [^3H-]PGE2 (specific activity 180 Ci mmol) was used as the radioligand for EP receptors. [^3H]17-phenyl PGF2α was employed for FP receptor binding studies. Binding studies employing EP1, EP2, EP4 and FP receptors were performed in duplicate in at least three separate experiments. A 200 μl assay volume was used. Incubations were for 60 min at 25° C. and were terminated by the addition of 4 ml of ice-cold 50 mM TRIS-HCl, followed by rapid filtration through Whatman GF/B filters and three additional 4 ml washes in a cell harvester (Brandel). Competition studies were performed using a final concentration of 5 nM [^3H]-PGE2, or 5 nM [^3H] 17-phenyl PGF2α and non-specific binding determined with 10^−5M of unlabeled PGE2, or 17-phenyl PGF2α, according to receptor subtype studied.

EP4 receptors = biological target: T2, EP4 receptors (Homo sapiens, UniProt P35408); test: Radioligand binding, [3H]PGE2, HEK-293 cells stably expressing EP4 receptors; settings: [3H]PGE2 competition
T2 construct: expressed in transfected cells; host or cells: HEK-293
T2 sequence (P35408 whole entry): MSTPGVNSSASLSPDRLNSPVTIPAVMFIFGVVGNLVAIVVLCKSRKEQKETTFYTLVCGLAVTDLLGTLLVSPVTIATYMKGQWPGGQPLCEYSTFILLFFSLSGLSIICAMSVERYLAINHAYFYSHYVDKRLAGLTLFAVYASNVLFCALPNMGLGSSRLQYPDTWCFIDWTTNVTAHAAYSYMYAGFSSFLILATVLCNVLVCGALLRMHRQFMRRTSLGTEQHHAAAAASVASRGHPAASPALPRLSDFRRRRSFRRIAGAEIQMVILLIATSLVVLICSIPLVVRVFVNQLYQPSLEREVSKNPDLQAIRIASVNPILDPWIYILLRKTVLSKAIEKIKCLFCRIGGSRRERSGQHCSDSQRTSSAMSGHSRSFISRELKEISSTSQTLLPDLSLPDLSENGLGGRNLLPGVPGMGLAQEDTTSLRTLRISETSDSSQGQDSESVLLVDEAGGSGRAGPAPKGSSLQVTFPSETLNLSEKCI
Experimental: as §1, §2, §3

T1 sequence (P43088 whole entry): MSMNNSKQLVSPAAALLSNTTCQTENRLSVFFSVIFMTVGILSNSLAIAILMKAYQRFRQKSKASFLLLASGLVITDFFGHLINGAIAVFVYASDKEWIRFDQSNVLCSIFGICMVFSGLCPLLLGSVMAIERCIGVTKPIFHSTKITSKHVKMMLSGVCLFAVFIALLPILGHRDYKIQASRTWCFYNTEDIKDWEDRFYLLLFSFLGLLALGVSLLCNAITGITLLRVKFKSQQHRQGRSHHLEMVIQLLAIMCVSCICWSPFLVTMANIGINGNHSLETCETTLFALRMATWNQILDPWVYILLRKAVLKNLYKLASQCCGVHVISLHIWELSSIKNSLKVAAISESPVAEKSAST

Compound | Ca2+ Signal-EC50(nM) FP (hFP) | Ki (EP2) [nM] | Ki (EP4 receptors) [nM]
CCCCCC(O)c1ccc([C@H]2C(=O)CC[C@@H]2CCCc2ccc(C(=O)O)s2)cc1 (some centres unmarked) [compound 2] | notactive | 70 | –
CCCCCC(O)c1ccc([C@@H]2[C@@H](C/C=C\CCCC(=O)O)CC[C@H]2O)cc1 (some centres unmarked) [compound 7] | notactive | 2310 | –
CCCCCC(O)c1ccc([C@H]2C(=O)C=C[C@@H]2CCCc2ccc(C(=O)O)s2)cc1 (some centres unmarked) [compound 11] | notactive | 173 | 1940

Further compounds by falling Ki (EP2), results first:

Ca2+ Signal-EC50(nM) FP (hFP) | Ki (EP2) [nM] | Ki (EP4 receptors) [nM] | Compound
notactive | 1050 | 4210 | CCCCCC(O)c1ccc([C@H]2C(=O)CC[C@@H]2C/C=C\CCCC(=O)O)cc1 (some centres unmarked) [compound 5]
notactive | 401 | 1030 | CCCCCC(O)c1ccc([C@@H]2[C@@H](C/C=C\CCCC(=O)O)CC[C@H]2Cl)cc1 (some centres unmarked) [compound 6]
notactive | 89 | – | CCCCCC(O)c1ccc([C@@H]2[C@@H](CCCc3ccc(C(=O)O)s3)CCC2(Cl)Cl)cc1 (some centres unmarked) [compound 3]
notactive | 43 | – | CCCCCC(O)c1ccc([C@H]2C(=O)CC[C@@H]2CCCc2ccc(C(=O)O)s2)cc1 (some centres unmarked) [compound 1]
